Data taken from patent publication EP4527379A1, “LIPIDS CONTAINING AN OLIGOGLYCEROL GROUP” (Thermosome GmbH, priority 2023, dated 2025).

Tests used:
[1] = LNP formulations with the cationizable lipid (Carrasco et al. 2021); cited from earlier work
[2] = Solubility and chemical stability in organic solvents; assay type: physicochemical
Procedure: CLG2 is readily soluble in chloroform as a clear solution with at least 10 mg/ml.

[3] = Indicative storage stability studies using HPLC/CAD; assay type: physicochemical
Procedure: The batch was investigated in indicative storage stability studies using HPLC/CAD. CLG2 is stable in its powder form for at least 1 year when stored at -20°C. In contrast to NLG2, CLG2 could also be stored in organic solvents (e.g., chloroform) at temperature ranges from -20 to 2-8°C for at least 9 months.

solubility ([2]; chloroform, organic solvent or mixture, read-out: soluble in chloroform as a clear solution)	decomposition in ethanol ([2]; ethanol, compared with methanol and isopropanol)	could be stored in organic solvents ([3]; organic solvents (e.g., chloroform), -20 to 2-8°C)	stable in its powder form ([3]; powder, stored at -20°C)	SMILES	pKa [1]
				CCCCC/C=C\C/C=C\CCCCCCCCC(CCCCCCCC/C=C\C/C=C\CCCCC)OC(=O)CCCN(C)C [DLin-MC3-DMA]	6.57
≥ 10000 µg/mL	less pronounced	at least 9 months	at least 1 year	CCCCCCCCCCCCCCCC(=O)OCC(C[N+](C)(C)CC(O)COCC(O)CO)OC(=O)CCCCCCCCCCCCCCC (centres unmarked) [CLG2]	
